Values quoted from earlier work in US8946410B2, “Automated radiosynthesis” (GE Healthcare Limited, priority 2009, dated 2015).

Target: GABAA receptor
Conditions: GABAA receptor affinity, related art

In the case of `CCOC(=O)c1ncn2c1CN(C)C(=O)c1cc([18F])ccc1-2` [[^18F]FMZ, [^18F]Flumazenil], the Ki is listed as roughly 0.5 nM.
